Measurements published in patent US20240208992A1, “MACROCYCLES AS CFTR MODULATORS” (Idorsia Pharmaceuticals Ltd, priority 2021, published 2024).

Target: human F508del-CFTR (Homo sapiens, UniProt P13569, DEL508-508)
Experiment: F508del-CFTR cell surface expression (corrector activity), DiscoveRx ß-galactosidase complementation chemiluminescence assay in recombinant U2OS cell line;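 note: U2OS cells co-expressing ProLink-tagged F508del-CFTR and a membrane-anchored enzyme acceptor, where more surface CFTR restores β-galactosidase activity measured by chemiluminescence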
Details: U2OS cell line, 16h compound incubation; for EC50: EC50, F508del-CFTR cell surface expression, geomean values; for Emax: U2OS, in relation to the Emax of the corrector lumacaftor (=100%), arithmetic mean values

Chain of human F508del-CFTR (P13569 with tags, fused parts or gaps DEL508-508): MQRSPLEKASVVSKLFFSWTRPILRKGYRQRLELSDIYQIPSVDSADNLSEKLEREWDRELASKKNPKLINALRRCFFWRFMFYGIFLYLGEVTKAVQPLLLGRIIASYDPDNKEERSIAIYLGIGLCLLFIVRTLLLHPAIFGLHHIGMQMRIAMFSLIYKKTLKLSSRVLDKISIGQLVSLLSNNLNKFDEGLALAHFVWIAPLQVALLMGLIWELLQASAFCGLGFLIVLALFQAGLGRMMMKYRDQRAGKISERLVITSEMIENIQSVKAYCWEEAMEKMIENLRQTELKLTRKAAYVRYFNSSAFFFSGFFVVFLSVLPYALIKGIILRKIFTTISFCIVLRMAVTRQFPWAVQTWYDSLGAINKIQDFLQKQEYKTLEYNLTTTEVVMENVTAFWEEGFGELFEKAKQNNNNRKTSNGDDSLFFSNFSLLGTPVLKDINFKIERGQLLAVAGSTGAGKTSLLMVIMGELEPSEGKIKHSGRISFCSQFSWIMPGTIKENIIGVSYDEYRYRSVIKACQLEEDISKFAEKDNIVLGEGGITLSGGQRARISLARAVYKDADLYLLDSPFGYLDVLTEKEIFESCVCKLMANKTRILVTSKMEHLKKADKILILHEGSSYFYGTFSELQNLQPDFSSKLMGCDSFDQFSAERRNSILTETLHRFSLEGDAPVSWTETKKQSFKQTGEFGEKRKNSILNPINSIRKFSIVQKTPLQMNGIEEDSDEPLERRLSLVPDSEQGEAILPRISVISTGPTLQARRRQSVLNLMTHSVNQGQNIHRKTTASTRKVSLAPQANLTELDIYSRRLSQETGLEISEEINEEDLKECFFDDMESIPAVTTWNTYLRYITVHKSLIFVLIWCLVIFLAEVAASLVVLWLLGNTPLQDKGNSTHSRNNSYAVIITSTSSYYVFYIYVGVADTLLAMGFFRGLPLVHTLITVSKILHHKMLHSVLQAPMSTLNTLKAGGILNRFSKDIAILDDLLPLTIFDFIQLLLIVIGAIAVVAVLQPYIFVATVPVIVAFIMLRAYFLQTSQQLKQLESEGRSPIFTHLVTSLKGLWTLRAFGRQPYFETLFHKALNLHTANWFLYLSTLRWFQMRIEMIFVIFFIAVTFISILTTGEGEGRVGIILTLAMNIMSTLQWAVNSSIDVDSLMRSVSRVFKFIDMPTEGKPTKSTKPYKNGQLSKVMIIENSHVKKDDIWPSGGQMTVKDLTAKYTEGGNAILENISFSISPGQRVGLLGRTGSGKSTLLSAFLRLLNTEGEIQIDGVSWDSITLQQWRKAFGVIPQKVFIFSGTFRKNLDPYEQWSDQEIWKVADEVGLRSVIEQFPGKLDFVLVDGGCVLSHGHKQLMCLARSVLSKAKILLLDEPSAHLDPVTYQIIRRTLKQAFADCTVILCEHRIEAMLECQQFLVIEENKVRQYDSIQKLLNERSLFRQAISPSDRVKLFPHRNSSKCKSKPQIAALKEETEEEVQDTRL

[2H]C([2H])([2H])Oc1cccc(CCNC(=O)[C@@H]2CC(=O)N(C)[C@@H](CC(C)C)C(=O)N(CCC3CCCCC3)CC(=O)N[C@H](Cc3ccccc3)COc3cccc(OC([2H])([2H])[2H])c3C(=O)N2)c1 [Example 244, (3R,9S,13S)-3-benzyl-7-(2-cyclohexylethyl)-9-isobutyl-16-(methoxy-d3)-N-(3-(methoxy-d3)phenethyl)-10-methyl-5,8,11,15-tetraoxo-2,3,4,5,6,7,8,9,10,11,12,13,14,15-tetradecahydrobenzo[p][1]oxa[4,7,10,14]tetraazacycloheptadecine-13-carboxamide]
EC50: 177 nM | Emax: 239%

COc1ccc2c(c1)C(=O)N[C@H](C(=O)NCCc1ccc3c(c1)OCCC3)CC(=O)N(C)[C@@H](CC(C)C)C(=O)N(C)CC(=O)N[C@H](Cc1ccccc1)CO2 [Example 245, (3R,9S,13S)-3-benzyl-N-(2-(chroman-7-yl)ethyl)-9-isobutyl-17-methoxy-7,10-dimethyl-5,8,11,15-tetraoxo-2,3,4,5,6,7,8,9,10,11,12,13,14,15-tetradecahydrobenzo[p][1]oxa[4,7,10,14]tetraazacycloheptadecine-13-carboxamide]
EC50: 260 nM | Emax: 174%

Cc1cccc2c1C(=O)N[C@H](C(=O)NCCc1ccc3c(c1)OCO3)CC(=O)N(C)[C@@H](CC(C)C)C(=O)N(CCC1CCCCC1)CC(=O)N[C@H](Cc1ccccc1)CO2 [Example 246, (3R,9S,13S)-N-(2-(benzo[d][1,3]dioxol-5-yl)ethyl)-3-benzyl-7-(2-cyclohexylethyl)-9-isobutyl-10,16-dimethyl-5,8,11,15-tetraoxo-2,3,4,5,6,7,8,9,10,11,12,13,14,15-tetradecahydrobenzo[p][1]oxa[4,7,10,14]tetraazacycloheptadecine-13-carboxamide]
EC50: 140 nM | Emax: 105%

COc1cccc(CCNC(=O)[C@@H]2CC(=O)N(C)[C@@H](CC(C)C)C(=O)N(CCC3CCCCC3)CC(=O)N[C@H](Cc3ccccc3)COc3cccc(C)c3C(=O)N2)c1 [Example 247, (3R,9S,13S)-3-benzyl-7-(2-cyclohexylethyl)-9-isobutyl-N-(3-methoxyphenethyl)-10,16-dimethyl-5,8,11,15-tetraoxo-2,3,4,5,6,7,8,9,10,11,12,13,14,15-tetradecahydrobenzo[p][1]oxa[4,7,10,14]tetraazacycloheptadecine-13-carboxamide]
EC50: 146 nM | Emax: 111%

COc1ccc2c(c1)C(=O)N[C@H](C(=O)NCCc1ccc3c(c1)OCO3)CC(=O)N(C)[C@@H](CC(C)C)C(=O)N(CCC1CCCCC1)CC(=O)N[C@H](Cc1ccccc1)CO2 [Example 248, (3R,9S,13S)-N-(2-(benzo[d][1,3]dioxol-5-yl)ethyl)-3-benzyl-7-(2-cyclohexylethyl)-9-isobutyl-17-methoxy-10-methyl-5,8,11,15-tetraoxo-2,3,4,5,6,7,8,9,10,11,12,13,14,15-tetradecahydrobenzo[p][1]oxa[4,7,10,14]tetraazacycloheptadecine-13-carboxamide]
EC50: 106 nM | Emax: 191%

COc1cccc(CCNC(=O)[C@@H]2CC(=O)N(C)[C@@H](CC(C)C)C(=O)N(CCC3CCCCC3)CC(=O)N[C@H](Cc3ccccc3)COc3ccc(OC)cc3C(=O)N2)c1 [Example 249, (3R,9S,13S)-3-benzyl-7-(2-cyclohexylethyl)-9-isobutyl-17-methoxy-N-(3-methoxyphenethyl)-10-methyl-5,8,11,15-tetraoxo-2,3,4,5,6,7,8,9,10,11,12,13,14,15-tetradecahydrobenzo[p][1]oxa[4,7,10,14]tetraazacycloheptadecine-13-carboxamide]
EC50: 116 nM | Emax: 175%

CC(C)C[C@H]1C(=O)N(CCC2CCCCC2)CC(=O)N[C@H](Cc2ccccc2)COc2cc3ccccc3cc2C(=O)N[C@H](C(=O)NCCc2ccc3c(c2)OCO3)CC(=O)N1C [Example 250, (3R,9S,13S)-N-(2-(benzo[d][1,3]dioxol-5-yl)ethyl)-3-benzyl-7-(2-cyclohexylethyl)-9-isobutyl-10-methyl-5,8,11,15-tetraoxo-2,3,4,5,6,7,8,9,10,11,12,13,14,15-tetradecahydronaphtho[2,3-p][1]oxa[4,7,10,14]tetraazacycloheptadecine-13-carboxamide]
EC50: 86 nM | Emax: 160%

COc1cccc(CCNC(=O)[C@@H]2CC(=O)N(C)[C@@H](CC(C)C)C(=O)N(CCC3CCCCC3)CC(=O)N[C@H](Cc3ccccc3)COc3cc4ccccc4cc3C(=O)N2)c1 [Example 251, (3R,9S,13S)-3-benzyl-7-(2-cyclohexylethyl)-9-isobutyl-N-(3-methoxyphenethyl)-10-methyl-5,8,11,15-tetraoxo-2,3,4,5,6,7,8,9,10,11,12,13,14,15-tetradecahydronaphtho[2,3-p][1]oxa[4,7,10,14]tetraazacycloheptadecine-13-carboxamide]
EC50: 83 nM | Emax: 159%

CCc1ccc(CCNC(=O)[C@@H]2CC(=O)N(C)[C@@H](CC(C)C)C(=O)N(C)CC(=O)N[C@H](Cc3ccccc3)COc3ccncc3C(=O)N2)cc1 [Example 252, (3R,9S,13S)-3-benzyl-N-(4-ethylphenethyl)-9-isobutyl-7,10-dimethyl-5,8,11,15-tetraoxo-2,3,4,5,6,7,8,9,10,11,12,13,14,15-tetradecahydropyrido[3,4-p][1]oxa[4,7,10,14]tetraazacycloheptadecine-13-carboxamide]
EC50: 888 nM | Emax: 111%

CC(C)C[C@H]1C(=O)N(CCC2CCCCC2)CC(=O)N[C@H](Cc2ccccc2)COc2ccc(Cl)cc2C(=O)N[C@H](C(=O)NCCc2ccc3c(c2)OCO3)CC(=O)N1C [Example 253, (3R,9S,13S)-N-(2-(benzo[d][1,3]dioxol-5-yl)ethyl)-3-benzyl-17-chloro-7-(2-cyclohexylethyl)-9-isobutyl-10-methyl-5,8,11,15-tetraoxo-2,3,4,5,6,7,8,9,10,11,12,13,14,15-tetradecahydrobenzo[p][1]oxa[4,7,10,14]tetraazacycloheptadecine-13-carboxamide]
EC50: 88 nM | Emax: 136%

COc1cccc(CCNC(=O)[C@@H]2CC(=O)N(C)[C@@H](CC(C)C)C(=O)N(CCC3CCCCC3)CC(=O)N[C@H](Cc3ccccc3)COc3ccc(Cl)cc3C(=O)N2)c1 [Example 254, (3R,9S,13S)-3-benzyl-17-chloro-7-(2-cyclohexylethyl)-9-isobutyl-N-(3-methoxyphenethyl)-10-methyl-5,8,11,15-tetraoxo-2,3,4,5,6,7,8,9,10,11,12,13,14,15-tetradecahydrobenzo[p][1]oxa[4,7,10,14]tetraazacycloheptadecine-13-carboxamide]
EC50: 102 nM | Emax: 152%

COc1cc(OC)c2c(c1)OC[C@@H](Cc1ccccc1)NC(=O)CN(CCC1CCCCC1)C(=O)[C@H](CC(C)C)N(C)C(=O)C[C@@H](C(=O)NCCc1ccc3c(c1)OCO3)NC2=O [Example 255, (3R,9S,13S)-N-(2-(benzo[d][1,3]dioxol-5-yl)ethyl)-3-benzyl-7-(2-cyclohexylethyl)-9-isobutyl-16,18-dimethoxy-10-methyl-5,8,11,15-tetraoxo-2,3,4,5,6,7,8,9,10,11,12,13,14,15-tetradecahydrobenzo[p][1]oxa[4,7,10,14]tetraazacycloheptadecine-13-carboxamide]
EC50: 183 nM | Emax: 299%
